This is an account of results in patent publication US9938261B2, “Heterocyclic compounds and methods of use thereof” (AMBIT BIOSCIENCES CORPORATION, priority 2011, dated 2018).

In one assay the target is T1, FLT3 (Homo sapiens, UniProt P36888).
T1 construct: made in house
T1 sequence (P36888 27-993): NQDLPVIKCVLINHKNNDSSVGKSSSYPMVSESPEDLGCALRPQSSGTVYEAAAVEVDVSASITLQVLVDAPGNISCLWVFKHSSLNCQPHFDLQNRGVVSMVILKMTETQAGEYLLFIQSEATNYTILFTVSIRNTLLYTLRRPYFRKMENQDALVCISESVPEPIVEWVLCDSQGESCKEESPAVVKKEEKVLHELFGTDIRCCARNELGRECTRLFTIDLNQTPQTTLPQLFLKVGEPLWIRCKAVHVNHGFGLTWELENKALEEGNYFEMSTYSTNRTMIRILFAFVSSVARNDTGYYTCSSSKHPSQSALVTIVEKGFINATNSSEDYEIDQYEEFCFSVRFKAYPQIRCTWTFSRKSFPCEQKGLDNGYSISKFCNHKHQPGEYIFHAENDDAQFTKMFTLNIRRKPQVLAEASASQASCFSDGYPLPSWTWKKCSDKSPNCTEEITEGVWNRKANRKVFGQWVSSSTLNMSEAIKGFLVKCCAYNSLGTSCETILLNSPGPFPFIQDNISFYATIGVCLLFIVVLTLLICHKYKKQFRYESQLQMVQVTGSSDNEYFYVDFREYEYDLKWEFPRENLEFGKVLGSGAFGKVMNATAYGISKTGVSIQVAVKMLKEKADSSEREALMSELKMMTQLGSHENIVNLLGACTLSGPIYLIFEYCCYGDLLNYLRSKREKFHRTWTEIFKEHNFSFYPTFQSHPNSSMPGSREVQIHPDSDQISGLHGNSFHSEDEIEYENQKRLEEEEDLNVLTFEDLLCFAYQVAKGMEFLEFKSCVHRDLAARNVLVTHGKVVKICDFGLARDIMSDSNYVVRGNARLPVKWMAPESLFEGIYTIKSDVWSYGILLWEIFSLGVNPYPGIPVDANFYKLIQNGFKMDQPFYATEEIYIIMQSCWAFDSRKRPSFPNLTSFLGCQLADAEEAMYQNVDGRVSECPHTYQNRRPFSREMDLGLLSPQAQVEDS
The assay can be described thus: Competition binding assay, FLT3 Kd. How it is done: (§1) Competition binding assays used herein were developed, validated and performed as described in Fabian et al., Nature Biotechnology 2005, 23, 329-336. Kinases were produced as fusions to T7 phage (See, Fabian et al. or WO04/015142) or alternatively, the kinases were expressed in HEK-293 cells and subsequently tagged with DNA for PCR detection (See, WO08/005310). For the binding assays, streptavidin-coated magnetic beads were treated with biotinylated affinity ligands for 30 min at room temperature to generate affinity resins. The liganded beads were blocked with excess biotin and washed with blocking buffer (SeaBlock (Pierce), 1% BSA, 0.05% Tween 20, 1 mM DTT) to remove unbound ligand and to reduce non-specific binding. Binding reactions were assembled by combining kinase, liganded affinity beads, and test compounds in 1× binding buffer (20% SeaBlock, 0.17×PBS, 0.05% Tween 20, 6 mM DTT). Test compounds were prepared as 100× stocks in DMSO and diluted into the aqueous environment. Kds were determined using an eleven point threefold serial dilutions. DMSO or control compounds were was added to control assays lacking a test compound. Primary screen assays were performed in polypropylene 384-well plates in a final volume of 20-40 μL, while Kd determinations were performed in polystyrene 96-well plates in a final volume of 135 μL. The assay plates were incubated at room temperature with shaking for 1 hour to allow the binding reactions to reach equilibrium, and the affinity beads were washed extensively with wash buffer (1×PBS, 0.05% Tween 20) to remove unbound protein. The beads were then resuspended in elution buffer (1×PBS, 0.05% Tween […] non-biotinylated affinity ligand) and incubated at room temperature with shaking for 30 min. The kinase concentration in the eluates was measured by quantitative PCR.

A further assay deals with T2, KIT (Homo sapiens, UniProt P10721).
T2 construct: made in house
T2 sequence (P10721 26-976): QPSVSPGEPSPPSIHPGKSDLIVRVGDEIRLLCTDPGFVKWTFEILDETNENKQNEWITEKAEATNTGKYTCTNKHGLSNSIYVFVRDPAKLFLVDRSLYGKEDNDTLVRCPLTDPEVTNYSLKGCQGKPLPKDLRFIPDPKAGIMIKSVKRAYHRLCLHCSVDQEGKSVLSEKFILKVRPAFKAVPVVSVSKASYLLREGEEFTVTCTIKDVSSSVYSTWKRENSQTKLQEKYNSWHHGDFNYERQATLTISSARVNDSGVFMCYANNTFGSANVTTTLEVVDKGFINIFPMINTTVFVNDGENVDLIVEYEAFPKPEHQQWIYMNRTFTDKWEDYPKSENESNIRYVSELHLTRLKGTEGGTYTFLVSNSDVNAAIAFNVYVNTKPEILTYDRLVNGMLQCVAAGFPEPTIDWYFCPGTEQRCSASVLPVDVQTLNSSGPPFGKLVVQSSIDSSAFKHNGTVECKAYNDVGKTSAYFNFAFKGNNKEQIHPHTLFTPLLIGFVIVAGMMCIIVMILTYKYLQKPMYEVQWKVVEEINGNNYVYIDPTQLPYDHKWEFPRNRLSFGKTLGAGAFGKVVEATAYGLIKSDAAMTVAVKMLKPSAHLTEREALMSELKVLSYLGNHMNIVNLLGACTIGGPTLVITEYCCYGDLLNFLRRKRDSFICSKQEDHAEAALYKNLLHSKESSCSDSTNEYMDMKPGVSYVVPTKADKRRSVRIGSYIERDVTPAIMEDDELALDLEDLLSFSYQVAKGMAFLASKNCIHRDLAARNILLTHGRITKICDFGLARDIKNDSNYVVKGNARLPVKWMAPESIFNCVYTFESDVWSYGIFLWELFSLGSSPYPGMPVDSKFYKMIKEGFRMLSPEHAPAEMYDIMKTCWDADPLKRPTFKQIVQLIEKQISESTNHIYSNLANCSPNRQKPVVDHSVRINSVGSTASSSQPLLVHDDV
Briefly: Competition binding assay, KIT Kd. How it is done: as §1

Another assay has as its target T3, PDGFRβ (Homo sapiens, UniProt P09619).
T3 construct: made in house
The assay can be described thus: Competition binding assay, PDGFRβ Kd. How it is done: as §1

In the next assay the test system is M-NFS-60 cells. The assay can be described thus: M-NFS-60 cell proliferation assay (Alamar Blue). It is filed as cell-based, mouse. Conditions: Mus musculus, read-out: CSF1R M-NFS-60 CTB:IC50. How it is done:
The compounds disclosed herein were tested in an M-NFS-60 cell proliferation assay to determine their cellular potency against CSF1R. M-NFS-60s are mouse monocytic cells that depend on the binding of the ligand M-CSF to its receptor, CSF1R, to proliferate. Inhibition of CSF1R kinase activity will cause reduced growth and/or cell death. This assay assesses the potency of compounds as CSF1R inhibitors by measuring the reduction of Alamar Blue reagent by viable cells.
On day one of the experiment, M-NFS-60 cells were maintained in RPMI complete medium (Omega Scientific) plus 10% FBS supplemented with 20 ng/mL of M-CSF (R&D Systems). 96-well TC-treated, flat bottom plates were seeded at 10,000 cell/well at a volume of 100 μL per well. The cells were cultured overnight at 37° C. under 5% CO2.
On day two, compounds were added to the cells at 9 different concentrations, with half-log intervals alongside a control reference compound serving as a positive control. Final DMSO concentration was kept at 0.5% for a final volume of 200 μL. The compounds were allowed to incubate with the cells for 72 hours at 37° C. under 5% CO2.
On day five of the experiment, 40 μl of Alamar Blue reagent was added to each well and allowed to incubate for 3 hours. Alamar Blue fluorescence was read using SoftMax Pro software at 560 nm (excitation) and 590 nm (emission). IC50s were generated as an average of duplicates and represents the concentration of test compound that achieves 50% inhibition of cellular proliferation compared to control.
A general note: Resazurin is reduced to fluorescent resorufin, in cell work by metabolically active cells.

Assay [1] deals with T4, CSF1R (Homo sapiens, UniProt P07333). The assay can be described thus: Competition binding assay, CSF1R Kd. Also noted: made in house. How it is done: as §1
T4 sequence (P07333 20-972): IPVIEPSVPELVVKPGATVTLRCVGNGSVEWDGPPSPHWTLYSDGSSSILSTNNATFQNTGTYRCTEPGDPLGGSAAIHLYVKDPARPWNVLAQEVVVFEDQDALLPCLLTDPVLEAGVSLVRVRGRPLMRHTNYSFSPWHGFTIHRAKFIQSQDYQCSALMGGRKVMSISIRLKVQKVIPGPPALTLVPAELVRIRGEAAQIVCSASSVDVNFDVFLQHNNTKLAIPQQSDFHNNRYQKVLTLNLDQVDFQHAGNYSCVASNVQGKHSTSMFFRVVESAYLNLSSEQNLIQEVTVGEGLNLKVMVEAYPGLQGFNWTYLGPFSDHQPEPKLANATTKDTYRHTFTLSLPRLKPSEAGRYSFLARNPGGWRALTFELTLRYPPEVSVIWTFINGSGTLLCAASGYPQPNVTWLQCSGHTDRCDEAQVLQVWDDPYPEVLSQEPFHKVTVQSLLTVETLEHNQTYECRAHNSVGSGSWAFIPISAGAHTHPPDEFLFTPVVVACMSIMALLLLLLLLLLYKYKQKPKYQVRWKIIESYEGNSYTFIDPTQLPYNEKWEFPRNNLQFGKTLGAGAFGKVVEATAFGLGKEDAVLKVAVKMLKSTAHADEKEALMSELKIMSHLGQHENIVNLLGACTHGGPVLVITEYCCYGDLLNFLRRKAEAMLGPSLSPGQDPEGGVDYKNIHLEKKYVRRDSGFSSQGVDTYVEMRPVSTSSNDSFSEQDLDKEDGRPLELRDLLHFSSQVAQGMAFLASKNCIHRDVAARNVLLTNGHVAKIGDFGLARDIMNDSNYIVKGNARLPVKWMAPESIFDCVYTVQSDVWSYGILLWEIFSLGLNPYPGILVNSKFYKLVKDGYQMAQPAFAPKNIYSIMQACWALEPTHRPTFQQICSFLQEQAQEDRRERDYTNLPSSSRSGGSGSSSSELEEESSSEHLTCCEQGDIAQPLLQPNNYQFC
The target in assay [2] is T4, CSF1R. The assay can be described thus: HEK293 CSF1R phosphorylation MSD assay. The assay is classed as cell-based. Set-up: expressed in transfected cells; host or cells: HEK293. Conditions: read-out: HEK293 pCSF1R M-CSF MSD:IC50. How it is done:
The compounds disclosed herein were tested in a CSF1R phosphorylation assay to determine their cellular potency against CSF1R. A HEK293 cell line expressing CSF1R fused to FK506 binding protein (FKBP) as a molecular tag was generated. Inhibition of CSF1R kinase activity will prevent ligand-stimulated autophosphorylation of the CSF1R-FKBP in intact cells. Subsequent cell lysates are assayed in a sandwich ELISA employing the electrochemiluminescent Meso Scale Discovery (MSD) technology for the presence of the phosphorylated (p)CSF1R-FKBP. This assay determines the potency of compounds as CSF1R inhibitors by measuring the reduction in the amount of pCSF1R with increasing doses of compounds added to the cells prior to M-CSF stimulation.
On day one of the experiment, HEK293-CSF1R-FKPB cells, maintained in DMEM, with L-glutamine (Mediatech), 10% FBS, and 100 units/mL Penicillin/Streptomycin, were seeded at 50,000 cell/well in a volume of 100 μL per well in 96-well Cell Bind plates (Costar). The cells were cultured overnight at 37° C. under 5% CO2. To prepare the plates used in the MSD assay, a 330 nM biotin-FK506 (in TBS pH 7.2) solution was added at 30 μL per well to streptavidin-coated 96-well plates (MSD), and incubated overnight at room temperature, shaking at 500 rpm on an orbital shaker.
On day two, compounds diluted in DMSO were added to the cells in duplicate plates at 9 different concentrations with half-log intervals, plus DMSO only control, alongside a reference compound serving as a positive control. Final DMSO concentration was 0.5% in a volume of 200 μL per well. The compounds were allowed to incubate with the cells for 2 h at 37° C. under 5% CO2. At the end of the incubation, human M-CSF (R&D Systems) was added for 5 min to a final concentration of 50 ng/mL to stimulate CSF1R phosphorylation. Cells were lysed for 20 min, and the lysates were applied to the washed, FK506-coated MSD plates, and incubated overnight at 4° C. shaking at 500 rpm.
On day three, the MSD plates were washed, and the captured CSF1R-FKBP was assayed sequentially for phosphorylation using mouse anti-phosphotyrosine antibody (Millipore) and Sulfo-TAG goat anti-mouse IgG antibody (MSD), and detected on a Sector Imager 6000 instrument (MSD).
A single IC50 value for each compound was determined by averaging the IC50s of the duplicates calculated using Igor Pro 6 software, and represents the compound concentration that achieves a 50% inhibition of ligand-induced CSF1R phosphorylation compared to DMSO control.

Where [3] appears, read: 72 hours incubation, M-CSF 20 ng/mL.
Where [4] appears, read: 2 h compound, human M-CSF 50 ng/mL for 5 min.

The structures appear in SMILES notation. Where two headings read alike, the source gives them in different places. Bounds are passed on as bounds.

As a reminder, the Kd is a measure of binding affinity in units of concentration. A low value points to a tighter complex. By IC50 is commonly meant the concentration that gives 50% inhibition.

T3 sequence (P09619 33-1106): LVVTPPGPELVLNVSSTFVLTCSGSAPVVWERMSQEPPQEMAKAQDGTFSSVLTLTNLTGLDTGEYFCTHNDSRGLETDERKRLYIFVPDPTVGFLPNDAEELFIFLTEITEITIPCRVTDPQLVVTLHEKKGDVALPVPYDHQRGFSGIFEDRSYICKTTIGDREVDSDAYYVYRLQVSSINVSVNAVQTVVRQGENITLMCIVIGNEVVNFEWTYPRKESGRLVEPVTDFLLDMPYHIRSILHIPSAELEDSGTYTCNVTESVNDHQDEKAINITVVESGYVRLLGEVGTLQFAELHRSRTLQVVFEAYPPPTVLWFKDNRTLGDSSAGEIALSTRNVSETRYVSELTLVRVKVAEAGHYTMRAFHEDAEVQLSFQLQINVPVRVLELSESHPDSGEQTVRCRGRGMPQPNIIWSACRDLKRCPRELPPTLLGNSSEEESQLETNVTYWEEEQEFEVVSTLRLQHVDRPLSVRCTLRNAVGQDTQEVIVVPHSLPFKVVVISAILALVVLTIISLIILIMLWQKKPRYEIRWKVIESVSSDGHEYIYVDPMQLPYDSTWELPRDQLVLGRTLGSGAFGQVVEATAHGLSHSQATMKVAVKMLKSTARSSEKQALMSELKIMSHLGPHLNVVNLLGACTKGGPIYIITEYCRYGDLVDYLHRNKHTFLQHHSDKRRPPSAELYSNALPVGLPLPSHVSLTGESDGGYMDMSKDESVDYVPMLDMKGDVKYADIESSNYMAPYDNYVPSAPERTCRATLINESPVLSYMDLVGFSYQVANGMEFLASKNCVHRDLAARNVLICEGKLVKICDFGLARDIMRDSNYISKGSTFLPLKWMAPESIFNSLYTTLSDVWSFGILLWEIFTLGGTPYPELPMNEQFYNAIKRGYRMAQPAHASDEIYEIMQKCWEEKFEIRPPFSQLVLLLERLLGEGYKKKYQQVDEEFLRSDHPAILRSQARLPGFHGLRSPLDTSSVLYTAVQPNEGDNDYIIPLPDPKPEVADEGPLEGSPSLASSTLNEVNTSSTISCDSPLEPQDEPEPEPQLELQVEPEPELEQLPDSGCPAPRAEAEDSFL

Consider `O[C@H]1CCCC[C@H]1Nc1nc2ccc(Cn3cnc4ccccc43)cc2s1` (racemic) [Example 1, 2-((6-((1H-benzo[d]imidazol-1-yl)methyl)benzo[d]thiazol-2-yl)amino)cyclohexanol], for which the Kd on FLT3 is 1000 to 5000 nM; on KIT, 100 to 500 nM; at PDGFRβ it was 50 to 500 nM; on CSF1R [1], 5 to 20 nM. In addition, the IC50 was in the range of 50 to 400 nM in the assay on M-NFS-60 cells (setting [3]) and 50 to 200 nM on CSF1R [2] (setting [4]).
On to `COc1cc2ncn(Cc3ccc4nc(NC5CCOC5)sc4c3)c2cc1OC` (racemic) [Example 25, (R,S)-6-((5,6-dimethoxy-1H-benzo[d]imidazol-1-yl)methyl)-N-(tetrahydrofuran-3-yl)benzo[d]thiazol-2-amine acetic acid], for which the Kd at FLT3 was > 5000 nM; on KIT, > 2000 nM; at PDGFRβ, > 2000 nM; on CSF1R [1] it was > 50 nM. Moreover, the half-inhibitory concentration (IC50) with M-NFS-60 cells (setting [3]) is > 1500 nM; at CSF1R [2] (setting [4]), > 500 nM.
In the case of `COc1cc2ncn(Cc3ccc4nc(N[C@@H]5CCCCC5O)sc4c3)c2cc1OC` (stereo in doubt) [Example 2, (1R,2R)-2-((6-((5,6-dimethoxy-1H-benzo[d]imidazol-1-yl)methyl)benzo[d]thiazol-2-yl)amino)cyclohexanol], the Kd at FLT3 was in the range of 200 to 1000 nM; on KIT, 100 to 500 nM; on PDGFRβ it was 50 to 500 nM; at CSF1R [1], 5 to 20 nM. The 50% inhibitory concentration (IC50) in the assay on M-NFS-60 cells (setting [3]) is 50 to 400 nM; on CSF1R [2] (setting [4]), ≤ 50 nM.
As for `O[C@H]1CCCCC1Nc1nc2ccc(Cn3cnc4ccccc43)cc2s1` (stereo in doubt) [Example 7, (1S,2S)-2-((6-((1H-benzo[d]imidazol-1-yl)methyl)benzo[d]thiazol-2-yl)amino)cyclohexanol], the equilibrium dissociation constant (Kd) is 200 to 1000 nM at FLT3, 100 to 500 nM at KIT, ≤ 50 nM on PDGFRβ and 5 to 20 nM on CSF1R [1]. In addition, the results for the IC50 in the assay with M-NFS-60 cells (setting [3]) and on CSF1R [2] (setting [4]) were 400 to 1500 nM and 50 to 200 nM, respectively.
For the compound `COc1cc2ncn(Cc3ccc4nc(N[C@@H]5CCCC5O)sc4c3)c2cc1OC` (stereo in doubt) [Example 20, (1R,2R)-2-((6-((5,6-dimethoxy-1H-benzo[d]imidazol-1-yl)methyl)benzo[d]thiazol-2-yl)amino)cyclopentanol], the dissociation constant Kd at FLT3 is 1000 to 5000 nM; at KIT, > 2000 nM; on PDGFRβ, > 2000 nM; on CSF1R [1], 20 to 50 nM. Moreover, the IC50 with M-NFS-60 cells (setting [3]) is > 1500 nM; at CSF1R [2] (setting [4]) it was 200 to 500 nM.
In the case of `O[C@H]1CCCCC1Nc1nc2ccc(Cn3cnc4cc(F)cnc43)cc2s1` (stereo in doubt) [Example 213, (1S,2S)-2-((6-((6-fluoro-3H-imidazo[4,5-b]pyridin-3-yl)methyl)benzo[d]thiazol-2-yl)amino)cyclohexanol], the Kd on FLT3 (competition binding) is 200 to 1000 nM; on KIT (competition binding), ≤ 100 nM; on PDGFRβ (competition binding) it was ≤ 50 nM; at CSF1R [1] (competition binding), ≤ 5 nM. In addition, the 50% inhibitory concentration (IC50) in the assay on M-NFS-60 cells (M-NFS-60 cell proliferation) lay in the range of 50 to 400 nM; on CSF1R [2] (HEK293 cells, M-CSF stimulated CSF1R phosphorylation, MSD), 50 to 200 nM.
For the compound `O[C@@H]1CCCC[C@H]1Nc1nc2ccc(Cn3cnc4ncccc43)cc2s1` [Example 5, (1R,2R)-2-((6-((1H-imidazo[4,5-b]pyridin-1-yl)methyl)benzo[d]thiazol-2-yl)amino)cyclohexanol], the dissociation constant Kd was > 5000 nM at FLT3, > 2000 nM on KIT, > 2000 nM on PDGFRβ and > 50 nM at CSF1R [1]. The concentration for half-maximal inhibition (IC50) in the assay on M-NFS-60 cells (setting [3]) was > 1500 nM; on CSF1R [2] (setting [4]), > 500 nM.
Take `O[C@@H]1CCCC[C@H]1Nc1nc2ccc(Cn3cnc4ccccc43)cc2s1` [Example 6, (1R,2R)-2-((6-((1H-benzo[d]imidazol-1-yl)methyl)benzo[d]thiazol-2-yl)amino)cyclohexanol]: the dissociation constant (Kd) on FLT3 was ≤ 200 nM; on KIT it was 100 to 500 nM; on PDGFRβ it was 50 to 500 nM; at CSF1R [1], 5 to 20 nM. The half-inhibitory concentration (IC50) in the assay on M-NFS-60 cells (setting [3]) was 50 to 400 nM; on CSF1R [2] (setting [4]), 50 to 200 nM.
